Data reported in patent US11572590B2, “Methods for evaluating tumor cell spheroids using 3D microfluidic cell culture device” (Dana-Farber Cancer Institute, Inc., priority 2017, dated 2023).
Where two headings read alike, the source gives them in different places.

Tests used:
Experiment in all cases: SelectScreen Kinase Profiling, single point inhibition and IC50 for off-target kinases
Assay type in all cases: biochemical
[1] = biological target: off-target kinases (Homo sapiens, UniProt Q00535)
off-target kinases (Homo sapiens, UniProt Q00535), sequence (Q00535 whole entry): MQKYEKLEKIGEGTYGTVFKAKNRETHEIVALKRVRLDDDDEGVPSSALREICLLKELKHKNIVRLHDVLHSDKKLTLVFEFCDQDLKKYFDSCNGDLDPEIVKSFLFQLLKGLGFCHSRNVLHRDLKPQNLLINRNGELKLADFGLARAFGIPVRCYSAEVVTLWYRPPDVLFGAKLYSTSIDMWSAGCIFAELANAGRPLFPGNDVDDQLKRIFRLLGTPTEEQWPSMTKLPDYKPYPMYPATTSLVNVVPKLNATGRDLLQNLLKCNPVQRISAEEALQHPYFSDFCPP

[2] = biological target: off-target kinases (Homo sapiens, UniProt P10721, T670E); conditions: KIT T670E (mutant), LanthaScreen Binding
off-target kinases (Homo sapiens, UniProt P10721, T670E), sequence (P10721 26-976 T670E): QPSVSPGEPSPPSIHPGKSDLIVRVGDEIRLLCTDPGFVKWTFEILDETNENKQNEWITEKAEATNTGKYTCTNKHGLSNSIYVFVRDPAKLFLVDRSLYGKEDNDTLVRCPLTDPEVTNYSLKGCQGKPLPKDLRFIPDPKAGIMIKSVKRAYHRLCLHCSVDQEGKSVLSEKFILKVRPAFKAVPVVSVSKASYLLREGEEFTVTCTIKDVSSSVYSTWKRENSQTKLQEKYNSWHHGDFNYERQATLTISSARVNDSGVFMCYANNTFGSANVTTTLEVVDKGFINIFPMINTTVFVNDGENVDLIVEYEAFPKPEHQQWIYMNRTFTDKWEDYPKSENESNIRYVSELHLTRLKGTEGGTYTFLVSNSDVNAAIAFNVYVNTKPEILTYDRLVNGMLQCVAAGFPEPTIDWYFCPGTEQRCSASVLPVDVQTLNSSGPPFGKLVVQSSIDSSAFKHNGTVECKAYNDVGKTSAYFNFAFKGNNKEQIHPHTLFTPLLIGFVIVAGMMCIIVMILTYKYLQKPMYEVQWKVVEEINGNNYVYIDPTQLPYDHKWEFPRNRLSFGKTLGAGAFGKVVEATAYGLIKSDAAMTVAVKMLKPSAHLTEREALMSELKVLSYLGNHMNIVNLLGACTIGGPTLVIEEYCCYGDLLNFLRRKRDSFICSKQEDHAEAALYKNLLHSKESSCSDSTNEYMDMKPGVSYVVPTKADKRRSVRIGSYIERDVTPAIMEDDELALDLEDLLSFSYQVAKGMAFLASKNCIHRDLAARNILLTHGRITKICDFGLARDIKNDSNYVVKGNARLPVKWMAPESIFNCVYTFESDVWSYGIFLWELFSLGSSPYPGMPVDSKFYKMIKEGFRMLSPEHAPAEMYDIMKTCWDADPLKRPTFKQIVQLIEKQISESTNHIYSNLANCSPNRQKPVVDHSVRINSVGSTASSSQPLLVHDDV

[3] = biological target: T1, off-target kinases (Homo sapiens, UniProt Q05513); conditions: PRKCZ (PKC zeta); Cmpd1 1000 μM; ATP Km app; ZLYTE
T1 sequence (Q05513 1-592): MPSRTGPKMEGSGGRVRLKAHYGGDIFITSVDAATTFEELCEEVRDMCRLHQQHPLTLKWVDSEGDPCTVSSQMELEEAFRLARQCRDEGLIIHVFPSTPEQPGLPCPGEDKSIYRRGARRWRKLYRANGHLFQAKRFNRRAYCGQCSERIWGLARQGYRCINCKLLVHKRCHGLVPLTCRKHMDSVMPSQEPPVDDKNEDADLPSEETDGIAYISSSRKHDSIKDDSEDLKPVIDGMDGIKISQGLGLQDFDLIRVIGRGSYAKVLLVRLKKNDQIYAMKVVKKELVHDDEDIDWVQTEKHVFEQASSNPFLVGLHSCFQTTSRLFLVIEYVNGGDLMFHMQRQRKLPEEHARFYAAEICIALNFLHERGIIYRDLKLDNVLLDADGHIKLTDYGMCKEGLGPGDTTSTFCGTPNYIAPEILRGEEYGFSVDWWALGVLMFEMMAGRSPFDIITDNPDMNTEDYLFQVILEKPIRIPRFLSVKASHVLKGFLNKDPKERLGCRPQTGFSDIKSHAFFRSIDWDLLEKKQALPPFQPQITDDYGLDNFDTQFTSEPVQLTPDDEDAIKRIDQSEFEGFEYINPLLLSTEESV

[4] = biological target: off-target kinases (Homo sapiens, UniProt P06493)
off-target kinases (Homo sapiens, UniProt P06493), sequence (P06493 whole entry): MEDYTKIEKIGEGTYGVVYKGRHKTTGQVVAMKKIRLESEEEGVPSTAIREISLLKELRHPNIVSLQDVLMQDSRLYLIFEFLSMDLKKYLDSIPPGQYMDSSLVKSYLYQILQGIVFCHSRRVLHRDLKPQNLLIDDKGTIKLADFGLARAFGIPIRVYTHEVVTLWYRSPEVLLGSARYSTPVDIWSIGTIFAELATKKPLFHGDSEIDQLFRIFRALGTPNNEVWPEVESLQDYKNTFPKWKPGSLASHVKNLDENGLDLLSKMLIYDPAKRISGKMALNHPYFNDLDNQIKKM

[5] = biological target: T2, off-target kinases (Homo sapiens, UniProt Q13237); conditions: PRKG2 (PKG2), ZLYTE, ATP Km app
T2 sequence (Q13237 1-762): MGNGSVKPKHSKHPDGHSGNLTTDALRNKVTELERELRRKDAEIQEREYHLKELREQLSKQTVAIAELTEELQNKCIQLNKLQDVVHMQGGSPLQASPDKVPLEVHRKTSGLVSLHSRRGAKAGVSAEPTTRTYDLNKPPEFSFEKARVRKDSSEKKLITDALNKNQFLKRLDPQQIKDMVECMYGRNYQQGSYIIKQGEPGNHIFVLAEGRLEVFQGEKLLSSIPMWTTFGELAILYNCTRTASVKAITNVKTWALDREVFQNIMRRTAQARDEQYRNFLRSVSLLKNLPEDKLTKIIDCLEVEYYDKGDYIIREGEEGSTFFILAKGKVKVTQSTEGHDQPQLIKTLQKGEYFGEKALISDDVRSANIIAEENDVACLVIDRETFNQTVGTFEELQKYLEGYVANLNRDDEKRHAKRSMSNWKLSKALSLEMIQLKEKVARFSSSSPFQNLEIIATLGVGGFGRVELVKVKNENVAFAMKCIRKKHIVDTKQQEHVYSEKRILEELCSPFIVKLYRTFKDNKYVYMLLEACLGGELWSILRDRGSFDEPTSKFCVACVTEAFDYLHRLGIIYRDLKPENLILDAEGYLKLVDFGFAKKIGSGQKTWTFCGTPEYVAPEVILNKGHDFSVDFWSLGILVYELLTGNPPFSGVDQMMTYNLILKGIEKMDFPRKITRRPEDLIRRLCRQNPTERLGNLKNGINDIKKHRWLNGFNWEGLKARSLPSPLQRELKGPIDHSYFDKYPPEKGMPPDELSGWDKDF

For N#Cc1cc(-c2ncnc(Nc3ccc(N4CCN(C5COC5)CC4)cc3)n2)ccc1OC1CCOCC1 [Compound 1, 5-(4-((4-(4-(oxetan-3-yl)piperazin-1-yl)phenyl)amino)-1,3,5-triazin-2-yl)-2-((tetrahydro-2H-pyran-4-yl)oxy)benzonitrile], which inhibition ([1]; CDK5 (Inactive), LanthaScreen Binding, read-out: % Inhibition 1) is on record?
Its inhibition is 1%.

And the inhibition ([1]; CDK5 (Inactive), LanthaScreen Binding, read-out: % Inhibition 2)?
The inhibition was -2%.

What about the inhibition ([1]; CDK5/p25, ZLYTE, ATP Km app, read-out: % Inhibition 1) of the same compound?
Its inhibition is 3%.

What about the inhibition ([1]; CDK5/p25, ZLYTE, ATP Km app, read-out: % Inhibition 2) of the same compound?
Its inhibition is 1%.

What about the inhibition ([1]; CDK5/p25, ZLYTE, ATP Km app, read-out: % Inhibition Avg) of the same compound?
The inhibition was 2%.

What about the inhibition ([1]; CDK5/p35, ZLYTE, ATP Km app, read-out: % Inhibition 1) of the same compound?
Its inhibition is 7%.

What about the inhibition ([1]; CDK5/p35, ZLYTE, ATP Km app, read-out: % Inhibition 2) of the same compound?
The inhibition was 2%.

And the inhibition ([1]; CDK5/p35, ZLYTE, ATP Km app, read-out: % Inhibition Avg)?
Its inhibition is 5%.

What about the inhibition ([1]; read-out: % Inhibition Avg) of the same compound?
Its inhibition is -1%.

What about the inhibition ([2]; read-out: % Inhibition 1) of the same compound?
Its inhibition is 2%.

And the inhibition ([2]; read-out: % Inhibition 2)?
The inhibition was 2%.

What about the inhibition ([2]; read-out: % Inhibition Avg) of the same compound?
Its inhibition is 2%.

What about the “% Inhibition 1” value [3] of the same compound?
Its value is −18%.

What about the “% Inhibition 2” value [3] of the same compound?
The value was −16%.

What about the “% Inhibition Avg” value [3] of the same compound?
The value was −17%.

And the inhibition ([4]; CDK1/cyclin A2, LanthaScreen Binding, read-out: % Inhibition 1)?
Its inhibition is 2%.

And the inhibition ([4]; CDK1/cyclin A2, LanthaScreen Binding, read-out: % Inhibition 2)?
The inhibition was 12%.

What about the inhibition ([4]; CDK1/cyclin A2, LanthaScreen Binding, read-out: % Inhibition Avg) of the same compound?
Its inhibition is 7%.

What about the inhibition ([4]; CDK1/cyclin B, ZLYTE, ATP Km app, read-out: % Inhibition 1) of the same compound?
Its inhibition is 16%.

What about the inhibition ([4]; CDK1/cyclin B, ZLYTE, ATP Km app, read-out: % Inhibition 2) of the same compound?
The inhibition was 15%.

And the inhibition ([4]; CDK1/cyclin B, ZLYTE, ATP Km app, read-out: % Inhibition Avg)?
The inhibition was 16%.

What about the inhibition ([5]; read-out: % Inhibition 1) of the same compound?
Its inhibition is 16%.

And the inhibition ([5]; read-out: % Inhibition 2)?
The inhibition was 13%.

What about the inhibition ([5]; read-out: % Inhibition Avg) of the same compound?
The inhibition was 14%.
